# Results from US9594042B2, “Electrochemical determination of factor XA inhibitors” (Roche Diagnostics Operations Inc., priority 2006, dated 2017).
# Molecular target: factor Xa (Homo sapiens, UniProt P00742)
# Experiment: premature factor Xa-induced degradation of the thrombin substrate during common dwelling in liquid reagent
# Assay type: biochemical
# Settings: common dwelling time of 2 h with factor Xa
# From the text: The coagulation factor Xa is a serine protease which naturally recognizes the amino sequence -Ile-Glu-Gly-Arg- of prothrombin and by cleaving this sequence, activates the natural substrate prothrombin to form thrombin. In addition to this physiological substrate, factor Xa is also able to enzymatically cleave other peptides having this or other cleavage sequences. Thus, peptidic thrombin substrates and in particular the widely used Chromozym TH can also be cleaved by factor Xa. This low substrate specificity of factor Xa can result in problems in the methods according to the invention especially when such a thrombin substrate which can also be cleaved by factor Xa is used as a detection reagent and already comes into contact with factor Xa before adding the sample and can be converted thereby. As a result a portion of the thrombin substrate can already be converted such that this is no longer available for the thrombin-mediated detection reaction and thus the result of the measurement is affected. Such undesired side reactions can occur especially when factor Xa and the thrombin substrate are in contact over a long period such as would be for example the case if these two substances were to be introduced simultaneously into a liquid detection reagent. […]
# Chain of factor Xa (P00742 235-488 limits assumed): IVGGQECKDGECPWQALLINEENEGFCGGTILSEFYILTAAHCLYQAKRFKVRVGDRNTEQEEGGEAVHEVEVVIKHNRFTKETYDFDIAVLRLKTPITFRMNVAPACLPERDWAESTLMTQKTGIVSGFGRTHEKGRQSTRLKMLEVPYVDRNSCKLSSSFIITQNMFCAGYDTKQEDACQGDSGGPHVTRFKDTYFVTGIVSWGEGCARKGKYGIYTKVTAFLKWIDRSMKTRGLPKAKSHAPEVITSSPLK
# Chain of factor Xa (P00742 41-179 partner limits assumed): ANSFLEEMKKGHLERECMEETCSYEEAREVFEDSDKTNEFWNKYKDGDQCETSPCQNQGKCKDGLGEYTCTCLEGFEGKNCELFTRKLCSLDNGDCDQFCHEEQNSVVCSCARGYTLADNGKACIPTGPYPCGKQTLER
substance,measurement,value
tosyl-glycy-prolyl-arginine-4-nitroanilide acetate [reduced Chromozym TH],portion of the reduced Chromozym TH cleaved due alone to the action of factor Xa,about 25%
